Measured values: paper PMC11798738, “Targeting ASK1 by CS17919 alleviates kidney‐ and liver‐related diseases in murine models” (Animal Models and Experimental Medicine, 2024)

Assays:
L02 cells [1] = experiment: Cell protection in PA-stimulated L02 cells (Cell Titer-Glo viability); assay type: cell-based, human; details: 50 μmol/L PA, 72 h
Method: L02 cells were cultured in DMEM medium (Gibco, 11 965 092, Carlsbad, CA, USA) supplemented with 20% FBS and 1× penicillin–streptomycin. L02 cells were inoculated in two 96‐well plates at 1E4 cells/well (200 μL). The following day, the cells were stimulated with 50 μmol/L PA (dissolved in ethanol to make a 200× stock solution and then added to the medium) and simultaneously incubated with different concentrations of CS17919 and GS‐4997 (CS17919 and GS‐4997 stock solutions were added to the well plates to reach a final concentration of 10–0.3 μmol/L). After 72 h of incubation, the original medium was removed, followed by the addition of 100 μL of new DMEM medium and 60 μL of Cell Titer‐Glo reagent per well. The cells were incubated for 5 min in the dark, and then transferred to a black permeable plate for detection using an enzyme plate reader (Tecan spark, Grödig, Austria).

UUO mouse model = UUO mouse model of kidney injury and fibrosis; assay type: in vivo, C57BL/6J mice
Method: 55 C57BL/6J mice, male, 6–8 weeks old were purchased from Chengdu Pharmachem Biotechnology Co. (Chengdu, China) and randomly divided into 5 groups according to their body weight: Sham (n = 10), Model (n = 15), CS17919L (10 mg/kg, n = 10), CS17919H (60 mg/kg, n = 10), and GS‐4997 (30 mg/kg, n = 10). The mice were anesthetized and fixed on the operating table, and the abdominal cortex and muscles were cut in the middle of the right side of the abdomen, and the ureter was searched for along the renal hilum. The ureter was separated using a glass split‐needle and ligated at the opening of the renal pelvis and the upper 1/3 of the ureter, and the ureter was cut between the two ligatures. Finally, the muscle and skin were closed with consecutive sutures, and animals were kept under observation until they awoke. Both the Sham and the Model group received solvent (0.2% CMC‐Na + 0.1% Tween‐80) orally twice daily. CS17919 and GS‐4997 were administered by gavage twice daily at the corresponding doses for 11 days. All treatments were started one day before surgical operation. All mice were sacrificed one day after administration with overnight fasting. Blood was collected, and serum was isolated for the analysis of urea nitrogen and creatinine. The kidney of each mouse was removed, weighed and fixed in 10% formalin solution for pathological study.
Masson staining was applied to determine kidney fibrosis in the UUO model. Thin 4 μm paraffin sections of each sample were used in this study, which followed the standard procedure. The sections were stained with Hematoxylin staining solution for 5–10 min and then washed, followed by staining with Ponceau S‐acid fuchsin stain for around 5–10 min. The sections were treated with 1% phosphomolybdic acid and Aniline Blue solution, and finally dehydrated stepwise in alcohol and sealed. VIS7.0 software was used to analyze the area of kidney fibrosis and the percentage of the fibrosis area in the scanning area was calculated.

DKD mouse model = experiment: STZ + HFD-induced DKD mouse model; assay type: in vivo, mice; details: 50 mg/kg gavage twice a day, ten weeks
Method: 26 male neonatal mice were purchased from Chengdu Pharmachem Biotechnology Co., 5 of which were assigned to the control group and fed a chow diet. The other 21 mice were subcutaneously injected with STZ ([…]) 48 h after birth. After 4 weeks, these mice were fed a high‐fat diet (HFD, Research Diet, New Brunswick, NJ, USA) and randomly subdivided into two groups based on blood glucose level followed by 6 h of fasting: Model (n = 11) and CS17919 (n = 10). Both the control and model groups were given the solvent mentioned above, administered orally twice a day, while CS17919 was administered twice a day by gavage at a dose of 50 mg/kg for 70 days. Body weight measurements were performed twice a week during the administration period. 24‐h urine was collected for each mouse 2 days before sacrifice. Creatinine clearance was calculated using the following formula: creatinine clearance = urinary creatinine (mg/dL) × urine volume per minute (ml/min)/blood creatinine (mg/dL). Fasting blood glucose was measured before sacrifice. After a 10‐week drug intervention, mice were sacrificed, and blood was collected to isolate serum for the urea nitrogen and serum creatinine test. The kidneys of each mouse were then removed, weighed and fixed in 10% formalin solution for pathological study.
PAS staining was applied to determine kidney glomerular sclerosis in the DKD model. Thin 4 μm paraffin sections of each sample were used in this study, which followed the standard procedure. Periodic acid‐treated paraffin sections were stained using Schiff for 10 min, after rinsing the residual acid. Hematoxylin staining was performed for 3 min, and the samples were then dehydrated and sealed. The PAS score was calculated by semiquantitative analysis as follows: 0, without sclerosis; 1, 1%–25% sclerosis area; 2, 26%–50% sclerosis area; 3, 51%–75% sclerosis area; 4, >75% sclerosis area.

CYP3A4 = CYP3A4 (Homo sapiens, UniProt P08684); experiment: CYP inhibition in vitro; details: read-out: CYP3A4 (Midazolam) inhibition IC50; substrate Midazolam
HUH7 = experiment: MTS cytotoxicity assay, HUH7; assay type: cell-based, human; details: 72 h
Method: Human embryonic kidney cells (HEK‐293A), human hepatocellular carcinoma cells (HUH7), human embryonic liver diploid cells (CCC‐HEL‐1) and human embryonic lung cells (MRC‐5) were selected for the cytotoxicity study of both drugs, using the MTS assay protocol. Cells were cultured at 37°C with 5% CO2 using an appropriate medium. […] After 72 h of incubation, 30 μL of MTS solution was added to each well, and the cells were then incubated for 2–4 h in the dark. The absorbance value of each well at 490 nm was measured using an enzymatic plate reader and the IC50 for each drug and each cell line was calculated. Cell viability and cytoxicity experiments were repeated three times.

L02 cells [2] = experiment: Effects of the drugs on L02 cells (Figure S1C); assay type: cell-based, human; details: 0.3–10 μmol/L
Method: FIGURE S1 (A) Chemical structural formulae of CS17919 and GS-4997. (B) Viability of L02 cells 72 h after 25–800 μmol/L (2-fold dilution) PA stimulation. (C) The effects of CS17919 and GS-4997 at different doses (0.3–10 μmol/L) on L02 cells. (D) Kidney weights in the UUO model. (E) Renal coefficients in the DKD model. (F) Urine ALB in the DKD model. (G) Liver weights in the NASH model. *: PA vs. Blank; GS-4997 vs. DMSO; Treatment vs. Model. #: CS17919 vs. DMSO; Control vs. Model. * p < 0.05, ## p < 0.01, *** p < 0.001, #### and **** p < 0.0001 were obtained by one-way ANOVA.

[3] = CS17919 10 and 60 mg/kg, GS-4997 30 mg/kg, gavage twice daily, 11 days

Sequence of CYP3A4 (P08684 whole entry): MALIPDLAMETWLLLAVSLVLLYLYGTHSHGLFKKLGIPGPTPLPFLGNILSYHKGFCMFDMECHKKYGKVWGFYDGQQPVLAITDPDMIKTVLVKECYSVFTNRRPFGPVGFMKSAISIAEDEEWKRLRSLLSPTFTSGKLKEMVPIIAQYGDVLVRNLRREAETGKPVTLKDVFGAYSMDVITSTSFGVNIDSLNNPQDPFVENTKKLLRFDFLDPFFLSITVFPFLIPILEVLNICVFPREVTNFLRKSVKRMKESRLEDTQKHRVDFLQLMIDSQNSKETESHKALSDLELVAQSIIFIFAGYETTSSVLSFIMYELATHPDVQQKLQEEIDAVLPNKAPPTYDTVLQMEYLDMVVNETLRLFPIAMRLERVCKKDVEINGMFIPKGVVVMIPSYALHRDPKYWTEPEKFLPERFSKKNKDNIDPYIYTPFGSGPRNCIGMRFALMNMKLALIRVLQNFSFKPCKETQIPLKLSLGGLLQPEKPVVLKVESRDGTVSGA

For `Cc1cc(F)c(C(=O)Nc2cccc(-c3nncn3[C@H](C)C(F)(F)F)n2)cc1NC(=O)C1CC1` [CS17919], the “Cell protection (cell viability normalized to PA-treated cells)” value (L02 cells [1]; 0.32–10 μmol/L drug) was “significantly prevented apoptosis at all doses”, the “Cell viability at high drug doses” value (L02 cells [1]; 5 and 10 μmol/L drug) was “mild protective effect” and the “Area of kidney fibrosis (Masson staining)” value (UUO mouse model; [3]) was “tendency to reduce”. For the same compound, the “Serum creatinine vs model group” value (UUO mouse model; [3]) was “non‐significant tendency to decrease”, the “Serum urea nitrogen vs model group” value (UUO mouse model; [3]) was “significantly reduced” and the “Inflammatory infiltration and interstitial fibrosis scores (H&E)” value (UUO mouse model; CS17919 high-dose group (60 mg/kg twice daily, 11 days)) was “improved significantly”. For the same compound, the Blood glucose (DKD mouse model) was “mildly reduced”, the Body weight (DKD mouse model) was “slight weight loss” and the Creatinine clearance (DKD mouse model) was “non‐significant tendency to improve”. For the same compound, the “Glomerular sclerosis score (PAS staining) vs model group” value (DKD mouse model) was “significantly reduced”, the “Insulin sensitivity (serum insulin) vs model group” value (DKD mouse model) was “slightly increased” and the Renal coefficients (DKD mouse model) was “improved”. The Serum creatinine (DKD mouse model) was “significantly lowered”, the Serum urea nitrogen (DKD mouse model) was “non‐significant tendency to reduce” and the IC50 (CYP3A4) was 3.02 µM. The “Cytotoxicity (cell viability)” value (HUH7) was “barely affected cell viability” and the “Safety in L02 cells” value (L02 cells [2]) was “safer than GS‐4997”.
